Calls of active or inactive are those of the source.
How the values were obtained:
[1] = PAX5 activity inhibitors, dose response, selectivity assay for PAX8 inhibitor project, cell-based, plate reader, dry powder samples (AID 743047); type: functional;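 also: HEK293 cells carrying a Pax5 driven CD19 promoter luciferase reporter; potency of inhibitors that lower reporter luminescence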
[2] = cytotoxicity in COV362 ovarian cancer cells, dose response, cytotoxicity control for PAX8 inhibitor project, cell-based, plate reader, dry powder, SA12 (AID 743144); type: functional
[3] = PAX2 cell-based inhibition, dose response, selectivity assay for PAX8 inhibitor project, plate reader, dry powder samples (AID 743048); type: functional;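 also: HEK293 cells carrying a WT1 promoter luciferase reporter driven by expressed Pax2; potency is for inhibition of Pax2 driven reporter signal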
[4] = IGROV1 ovarian cancer cell cytotoxicity, dose response, PAX8 inhibitor project, plate reader, dry powder samples (AID 743043); type: functional, cell-based; details: IGROV-1
[5] = cytotoxicity in OVCAR4 cells, dose response, cytotoxicity control for PAX8 inhibitor project, cell-based, plate reader, dry powder, SA11 (AID 743150); type: functional; details: OVCAR-4
[6] = IOSE-T80 ovarian epithelial cell cytotoxicity, dose response, cytotoxicity control for PAX8 inhibitor project, plate reader, dry powder samples (AID 743045); type: functional, cell-based
[7] = HEK293 cell cytotoxicity, dose response, cytotoxicity control, plate reader, cherry-picked samples (AID 743446); type: functional, cell-based
[8] = cytotoxicity in OV-90 ovarian cancer cells, dose response, PAX8 inhibitor project, cell-based, plate reader, dry powder, SA8 (AID 743149); type: functional
Paired box protein Pax-8 = Paired box protein Pax-8 (Homo sapiens, UniProt Q06710); assay: inhibitors of PAX8-driven TPO luciferase reporter, dose response, RMG-I cells, cherry-pick (AID 687027); type: functional, cell-based;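 also: luciferase reporter driven by Pax8 target thyroperoxidase promoter measured by SteadyGlo luminescence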
[9] = LGR2 antagonists, dose response, cell-based, HEK293, CRE-luciferase reporter, cherry pick, set 2 (AID 743343); type: functional;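 also: transfected cells were stimulated with diluted bursicon conditioned medium after compound addition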
[10] = A549 cell cytotoxicity, dose response, cytotoxicity control, plate reader, cherry-pick, antagonist series (AID 743412); type: functional, cell-based
[11] = A2780 ovarian cancer cell cytotoxicity, dose response, cytotoxicity control, plate reader, dry powder samples (AID 743046); type: functional, cell-based
[12] = NIH:OVCAR-3 ovarian cancer cell cytotoxicity, dose response, PAX8 inhibitor project, plate reader, dry powder samples (AID 743044); type: functional, cell-based
[13] = cytotoxicity dependent on PAX8, dose response, cell-based, plate reader, dry powder (AID 743049); type: functional
[14] = HepG2 cell cytotoxicity, dose response, cytotoxicity control, plate reader, cherry-pick, antagonist series (AID 743416); type: functional, cell-based
[15] = non-specific cell cytotoxicity, dose response, cytotoxicity control for PAX8 inhibitor project, plate reader, dry powder samples (AID 743021); type: functional, cell-based
[16] = cytotoxicity in COV434 cells, dose response, cytotoxicity control for PAX8 inhibitor project, cell-based, plate reader, dry powder, SA7 (AID 743145); type: functional
[17] = cytotoxicity in HEK-293T cells, dose response, cytotoxicity control for TCR NF-kB inhibitor project, luminescence, T-cell screen hits (AID 489026); type: functional, cell-based;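 also: cells exposed to compound about 14 hours before the viability readout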
[18] = MC4R antagonists, dose response, counter-screen for LGR2 antagonist project, cell-based, plate reader, cherry pick (AID 743444); type: functional;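 also: transfected HEK 293 cells stimulated with alpha-MSH peptide; potency of inhibitors of the alpha-MSH evoked signal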
[19] = target: T1, Oxysterols receptor LXR-beta (Homo sapiens, UniProt P55055); type: functional, cell-based;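 also: agonist activity at LXR measured by a cell-based luminescence readout across a dose range, run as a counterscreen for daf-12 agonists; HEK293 cells with Gal4-LXR fusion and GAL4-driven luciferase reporter; potency for activation of Gal4-LXR reporter so compounds are agonists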
T1 sequence (P55055 whole entry): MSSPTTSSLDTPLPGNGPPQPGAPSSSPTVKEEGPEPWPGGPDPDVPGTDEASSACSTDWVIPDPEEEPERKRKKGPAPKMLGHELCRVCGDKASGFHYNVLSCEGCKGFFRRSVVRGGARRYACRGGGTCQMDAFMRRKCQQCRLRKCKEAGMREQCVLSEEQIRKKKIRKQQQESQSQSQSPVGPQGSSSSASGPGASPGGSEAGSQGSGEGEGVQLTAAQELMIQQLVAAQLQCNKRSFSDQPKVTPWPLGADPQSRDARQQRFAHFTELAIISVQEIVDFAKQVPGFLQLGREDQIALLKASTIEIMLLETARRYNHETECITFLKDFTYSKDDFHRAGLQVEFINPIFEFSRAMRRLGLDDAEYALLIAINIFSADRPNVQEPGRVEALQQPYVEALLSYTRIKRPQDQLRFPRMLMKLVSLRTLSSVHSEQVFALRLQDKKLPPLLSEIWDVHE

[20] = ZM109 Env clade C HIV-1 fusion inhibitors, dose response, HeLa effector, CEM target cells, luciferase, cherry-pick (AID 652058); type: functional, cell-based
[21] = HIV Env cell-cell fusion inhibitors, dose response, HIV entry, plate reader, dry powder (AID 687023); type: functional, cell-based
[22] = inhibitors of clade B AD8 Env fusion, dose response, cell-based, cherry-pick (AID 652062); type: functional;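 also: luciferase signal from cell-cell fusion driven by HIV-1 clade B AD8 Env; potency is for inhibitors of fusion seen as a drop in luminescence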
[23] = inhibitors of HIV Env-driven cell fusion, dose response, cherry-pick (AID 652057); type: functional, cell-based
Major prion protein = Major prion protein (Homo sapiens, UniProt P04156); type: functional, cell-based
[24] = target: T2, Methionyl-tRNA synthetase, putative (Trypanosoma brucei brucei, UniProt Q38C91); type: functional, Trypanosoma brucei brucei strain 927/4 GUTat10.1
T2 sequence (Q38C91 whole entry): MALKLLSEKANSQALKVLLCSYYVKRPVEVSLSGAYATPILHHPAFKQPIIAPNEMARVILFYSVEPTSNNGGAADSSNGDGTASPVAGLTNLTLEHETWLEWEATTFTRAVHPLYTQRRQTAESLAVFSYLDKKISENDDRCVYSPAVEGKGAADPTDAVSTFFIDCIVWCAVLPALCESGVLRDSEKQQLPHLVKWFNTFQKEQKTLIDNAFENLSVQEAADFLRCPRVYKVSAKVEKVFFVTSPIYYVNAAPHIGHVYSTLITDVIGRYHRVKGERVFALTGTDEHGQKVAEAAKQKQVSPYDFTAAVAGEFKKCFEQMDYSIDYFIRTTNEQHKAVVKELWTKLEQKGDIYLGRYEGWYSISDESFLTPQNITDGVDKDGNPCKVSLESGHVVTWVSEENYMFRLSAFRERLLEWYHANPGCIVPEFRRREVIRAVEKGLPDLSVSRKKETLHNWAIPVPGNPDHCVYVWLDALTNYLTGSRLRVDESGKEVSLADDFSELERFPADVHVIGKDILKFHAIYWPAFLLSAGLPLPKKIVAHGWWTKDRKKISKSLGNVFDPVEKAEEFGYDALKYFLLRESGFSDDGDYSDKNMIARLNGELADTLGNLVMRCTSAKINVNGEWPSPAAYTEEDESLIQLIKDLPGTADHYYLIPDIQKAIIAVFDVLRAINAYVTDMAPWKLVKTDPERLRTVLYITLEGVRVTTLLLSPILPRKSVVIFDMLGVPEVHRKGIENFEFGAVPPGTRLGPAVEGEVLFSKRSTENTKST

[25] = Luminescence Cell-Based Dose Retest to Confirm Inhibitors of Cancer Stem Cells. [Related pubchem assays (depositor defined):AID2717, AID2721]; type: functional; details: Homo sapiens
[26] = target: T2, Methionyl-tRNA synthetase, putative; type: functional, Trypanosoma brucei brucei strain 927/4 GUTat10.1; remark: listed apart in the source
Cytochrome P450 2D6 = Cytochrome P450 2D6 (Homo sapiens, UniProt P10635);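 also: CYP2D6 member of a cytochrome P450 panel assay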
[27] = Counterscreen for inhibitors of Trypanosoma brucei methionyl tRNA synthetase (MetRS): Luminescence-based cell-based high throughput dose response assay to identify compounds that are cytotoxic to Jurkat human T lymphocyte cells.; type: functional
[28] = system: Streptococcus sp. 'group A'; assay: growth inhibition of control SK(-) GAS strain, dose response, counter-screen for streptokinase expression inhibitor project, luminescence, kanamycin, BacTiterGlo, confirmation (AID 1900); type: functional, organism-based
Streptococcus = assay: Group A Streptococcus viability loss, dose response, counter-screen for streptokinase expression inhibitor project, luminescence, BacTiterGlo (AID 1915); type: functional, organism-based;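 also: potency for reduction of bacterial viability or growth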
Streptokinase A = target: T3, Streptokinase A (Streptococcus pyogenes serotype M1, UniProt P10520); assay: S. pyogenes streptokinase expression inhibitors, potency, dose response, plasminogen activation absorbance, OD405 (AID 1914); type: functional, Streptococcus pyogenes M1 GAS;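 also: secreted streptokinase activity via plasminogen activation per viability signal from cell pellet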
T3 sequence (P10520 whole entry): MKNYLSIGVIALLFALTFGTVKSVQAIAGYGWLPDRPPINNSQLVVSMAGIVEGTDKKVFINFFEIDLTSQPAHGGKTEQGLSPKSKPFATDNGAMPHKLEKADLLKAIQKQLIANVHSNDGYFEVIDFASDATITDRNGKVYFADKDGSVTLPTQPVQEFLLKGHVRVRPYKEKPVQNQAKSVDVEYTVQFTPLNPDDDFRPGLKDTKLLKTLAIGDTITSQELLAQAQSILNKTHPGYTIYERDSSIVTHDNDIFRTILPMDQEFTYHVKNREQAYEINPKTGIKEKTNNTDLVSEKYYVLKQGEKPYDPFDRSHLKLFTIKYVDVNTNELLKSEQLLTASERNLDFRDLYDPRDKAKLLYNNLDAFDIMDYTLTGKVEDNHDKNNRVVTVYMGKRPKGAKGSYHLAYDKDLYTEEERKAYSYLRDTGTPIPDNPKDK

[29] = Late stage counterscreen for inhibitors of Trypanosoma brucei methionyl tRNA synthetase (MetRS): Luminescence-based cell-based high throughput dose response assay to identify compounds that are cytotoxic to Jurkat human T lymphocyte cells.; type: functional
[30] = inhibitors of control Renilla luciferase reporter, dose response, counter-screen for Shn3 3'UTR targeting project, Clone20-Shn3RL cells, dual-Glo, cherry-pick, set 2 (AID 720724); type: functional, cell-based; details: Dual-Go Shn3RL
[31] = HepG2 cell cytotoxicity, dose response, cytotoxicity control for Shn3 inhibitor project, CellTiter-Glo, cherry-picked (AID 624134); type: functional, cell-based
[32] = target: Beta-2 adrenergic receptor (Homo sapiens, UniProt P07550); assay: beta2AR agonists driving receptor internalization, dose response, cell-based, FAP fluorogen, flow cytometry, cherry pick 1 (AID 588763); type: functional
[33] = control 3'UTR Renilla luciferase suppression, dose response, counter-screen for Shn3 inhibitor project, cell-based, Clone20-Shn3RL, cherry-picked (AID 624133); type: functional
[34] = reduction of endogenous Shn3 mRNA, dose response, qPCR, Clone20 cells, cherry-pick (AID 743415); type: functional, cell-based
[35] = Shn3 3'UTR reporter inhibitors, dose response, cell-based, Clone20 osteoblasts, firefly luciferase, cherry-picked (AID 624132); type: functional;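 also: firefly luciferase luminescence from reporter carrying the Shn3 3'UTR in osteoblasts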
[36] = reduction of Shn3 3'UTR firefly luciferase signal, dose response, Schnurri-3 inhibitor project, cell-based, Clone20 osteoblasts, cherry-pick, set 2 (AID 720490); type: functional;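 also: actives lower the luminescence signal as inhibitors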
[37] = target: COUP transcription factor 2 (Homo sapiens, UniProt P24468); assay: Luminescence-based cell-based high throughput dose response assay to identify inhibitors of COUP-TFII (NR2F2).; type: functional;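 also: HEK293 cells transiently cotransfected with COUP-TFII expression vector and reporter; luciferase reporter luminescence driven by COUP-TFII from the pX2-168 reporter plasmid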

Cc1cnc(NC(=O)c2ccc3c(c2)OCCO3)s1
AC50 [1]: 17.5 µM (active) | AC50 [2]: 10.2 µM (active) | AC50 [3]: 13.4 µM (active) | AC50 [4]: 20.7 µM (active) | AC50 [5]: 26.8 µM (active) | AC50 [6]: 26 µM (active) | AC50 [7]: 31.4 µM (active) | AC50 [8]: 9.33 µM (active) | AC50 (Paired box protein Pax-8): 3.49 µM (active) | AC50 [9]: 0.854 µM (active) | AC50 [10]: 5.12 µM (active) | AC50 [11]: 28.8 µM (active) | AC50 [12]: 18.4 µM (active) | AC50 [13]: 13.1 µM (active) | AC50 [14]: 36 µM (active) | AC50 [15]: 52.3 µM (active) | AC50 [16]: 29.4 µM (active) | IC50 [17]: > 80 µM (inactive) | AC50 [18]: 0.794 µM (active)

Nc1c(-c2cccs2)cnc2c(-c3ccc(F)cc3)cnn12
EC50 [19]: > 67.5 µM (inactive)

Cn1c(C(=O)N2CCN(c3nc4ccccc4s3)CC2)cc2sccc21
AC50 [20]: 4.97 µM (active) | AC50 [21]: 8.02 µM (active) | AC50 [22]: 16.4 µM (active) | AC50 [23]: 3.01 µM (active)

CN(C)S(=O)(=O)c1ccc(N2CCCC2)c(C(=O)Nc2nc3ccccc3s2)c1
IC50 (cells): > 138 µM (inactive) | IC50 (Major prion protein): 10.4 µM (inactive)

O=C(NNC(=O)c1cc(-c2ccc(Cl)c(Cl)c2)nc2ccccc12)Nc1ccccc1
IC50 [24]: 3.12 µM (active) | AC50 [25]: 4.94 µM (active) | IC50 [26]: 1.64 µM (active) | AC50 (Cytochrome P450 2D6): 20 µM (inconclusive) | IC50 [27]: 34.2 µM (inactive) | EC50 [28]: 4.69 µM (active) | EC50 (Streptococcus): 13.7 µM (active) | EC50 (Streptokinase A): > 150 µM (not active) | IC50 [29]: 22.4 µM (inactive)

Cn1nnnc1Sc1ncnc2scc(-c3ccc(Br)cc3)c12
AC50 [30]: 5.09 µM (active) | AC50 [31]: 19.2 µM (active) | EC50 [32]: 8.44 µM (active) | AC50 [7]: 11.2 µM (active) | AC50 (Paired box protein Pax-8): 3.56 µM (active) | AC50 [33]: 14.4 µM (active) | AC50 [34]: 17.6 µM (active) | AC50 [9]: 8.94 µM (active) | AC50 [10]: 6.82 µM (active) | AC50 [35]: 334 nM (active) | AC50 [14]: 7.97 µM (active) | AC50 [18]: 15.6 µM (active) | AC50 [36]: 5.82 µM (active)

Cc1nn(C)c(C)c1NC(=O)COc1ccc(Cl)cc1Br
IC50 [37]: 8.76 µM (active)

Source: ChEMBL document CHEMBL1201862, “PubChem BioAssay data set” (2004)
